Results reported in patent publication US12077503B2, “Substituted cyclic amides and their use as herbicides” (FMC CORPORATION, priority 2015, dated 2024).

Tests used:
Assay type in all cases: in vivo
[1] = test system: pigweed (Amaranthus retroflexus); assay: Test A preemergence; conditions: Amaranthus retroflexus, pre-emergence, 240 h, read-out: Plant response rating, Pigweed; for pest or weed control at 125 g/ha: 125 g ai/ha, visual rating after approx. 10 d, 0 to 100 scale where 0 is no effect and 100 is complete control
[2] = test system: ryegrass, Italian (Italian ryegrass, Lolium multiflorum); assay: Test A preemergence; conditions: Lolium multiflorum, pre-emergence, 240 h, read-out: Plant response rating, Ryegrass, Italian; for pest or weed control at 125 g/ha: 125 g ai/ha, visual rating after approx. 10 d, 0 to 100 scale where 0 is no effect and 100 is complete control
Procedure, shortened: (§1)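 Seeds sprayed preemergence with a directed soil spray, or plants at 2 to 10 cm height and one- to two-leaf stage sprayed postemergence, with test chemicals in a non-phytotoxic solvent mixture containing surfactant, in loam soil–sand blend. Injury rated visually against untreated controls after about 10 d in greenhouse, 0 (no effect) to 100 (complete control).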

Kochia (Kochia scoparia) [3] = assay: Test A preemergence; conditions: Bassia scoparia, pre-emergence, 240 h, read-out: Plant response rating, Kochia; for pest or weed control at 125 g/ha: 125 g ai/ha, visual rating after approx. 10 d, 0 to 100 scale where 0 is no effect and 100 is complete control
Procedure, shortened: as §1

[4] = test system: ragweed (common ragweed, Ambrosia elatior); assay: Test A preemergence; conditions: Ambrosia artemisiifolia, pre-emergence, 240 h, read-out: Plant response rating, Ragweed; for pest or weed control at 125 g/ha: 125 g ai/ha, visual rating after approx. 10 d, 0 to 100 scale where 0 is no effect and 100 is complete control
Procedure, shortened: as §1

[5] = test system: giant foxtail (Setaria faberii); assay: Test A preemergence; conditions: Setaria faberi, pre-emergence, 240 h, read-out: Plant response rating, Foxtail, Giant; for pest or weed control at 125 g/ha: 125 g ai/ha, visual rating after approx. 10 d, 0 to 100 scale where 0 is no effect and 100 is complete control
Procedure, shortened: as §1

[6] = test system: blackgrass (Alopecurus myosuroides); assay: Test A postemergence; conditions: Alopecurus myosuroides, post-emergence, 240 h, read-out: Plant response rating, Blackgrass; for pest or weed control at 125 g/ha: 125 g ai/ha, postemergence, visual injury after approximately 10 d, 0 to 100 scale (0 no effect, 100 complete control)
Procedure, shortened: as §1

[7] = test system: wheat (Triticum aestivum); assay: Test A postemergence; conditions: Triticum aestivum, post-emergence, 240 h, read-out: Plant response rating, Wheat
Procedure, shortened: as §1

[8] = test system: pigweed (Amaranthus retroflexus); assay: Test A postemergence; conditions: Amaranthus retroflexus, post-emergence, 240 h, read-out: Plant response rating, Pigweed; for pest or weed control at 125 g/ha: 125 g ai/ha, postemergence, visual injury after approximately 10 d, 0 to 100 scale (0 no effect, 100 complete control)
Procedure, shortened: as §1

[9] = test system: Galium (catchweed bedstraw, Galium aparine); assay: Test A postemergence; conditions: Galium, post-emergence, 240 h, read-out: Plant response rating, Galium; for pest or weed control at 125 g/ha: 125 g ai/ha, postemergence, visual injury after approximately 10 d, 0 to 100 scale (0 no effect, 100 complete control)
Procedure, shortened: as §1

[10] = test system: ryegrass, Italian (Italian ryegrass, Lolium multiflorum); assay: Test A postemergence; conditions: Lolium multiflorum, post-emergence, 240 h, read-out: Plant response rating, Ryegrass, Italian; for pest or weed control at 125 g/ha: 125 g ai/ha, postemergence, visual injury after approximately 10 d, 0 to 100 scale (0 no effect, 100 complete control)
Procedure, shortened: as §1

Kochia (Kochia scoparia) [11] = assay: Test A postemergence; conditions: Bassia scoparia, post-emergence, 240 h, read-out: Plant response rating, Kochia; for pest or weed control at 125 g/ha: 125 g ai/ha, postemergence, visual injury after approximately 10 d, 0 to 100 scale (0 no effect, 100 complete control)
Procedure, shortened: as §1

corn (Zea mays) = assay: Test A postemergence; conditions: Zea mays, post-emergence, 240 h; for Corn plant response rating (crop injury, 0 = no effect, 100 = complete kill) at 125 g/ha: 125 g ai/ha, postemergence, visual injury after approximately 10 d, 0 to 100 scale (0 no effect, 100 complete control)
Procedure, shortened: as §1

[12] = test system: ragweed (common ragweed, Ambrosia elatior); assay: Test A postemergence; conditions: Ambrosia artemisiifolia, post-emergence, 240 h, read-out: Plant response rating, Ragweed; for pest or weed control at 125 g/ha: 125 g ai/ha, postemergence, visual injury after approximately 10 d, 0 to 100 scale (0 no effect, 100 complete control)
Procedure, shortened: as §1

[13] = test system: giant foxtail (Setaria faberii); assay: Test A postemergence; conditions: Setaria faberi, post-emergence, 240 h, read-out: Plant response rating, Foxtail, Giant; for pest or weed control at 125 g/ha: 125 g ai/ha, postemergence, visual injury after approximately 10 d, 0 to 100 scale (0 no effect, 100 complete control)
Procedure, shortened: as §1

[14] = test system: barnyardgrass (Echinochloa crus-galli); assay: Test A postemergence; conditions: Echinochloa crus-galli, post-emergence, 240 h, read-out: Plant response rating, Barnyardgrass; for pest or weed control at 125 g/ha: 125 g ai/ha, postemergence, visual injury after approximately 10 d, 0 to 100 scale (0 no effect, 100 complete control)
Procedure, shortened: as §1

[15] = Preemergence, 31 g ai/ha, 0 to 100 scale (0 no effect, 100 complete control)
[16] = Postemergence, 31 g ai/ha, visual injury after approx. 10 d, 0 to 100 scale, 0 no effect, 100 complete control
[17] = 500 g ai/ha, preemergence, 0 to 100 scale, 0 = no effect, 100 = complete control

C/C=C/C1CNC(=O)C1C(=O)Nc1cccc(F)c1F (stereo not shown) [Compound 793]
pest or weed control at 125 g/ha ([1]; preemergence): 0% | pest or weed control at 31 g/ha [1, 15]: 0% | pest or weed control at 125 g/ha ([2]; preemergence): 0% | pest or weed control at 31 g/ha [2, 15]: 0% | pest or weed control at 125 g/ha (Kochia (Kochia scoparia) [3]; preemergence): 0% | pest or weed control at 31 g/ha (Kochia (Kochia scoparia) [3]; [15]): 0% | pest or weed control at 125 g/ha ([4]; preemergence): 0% | pest or weed control at 31 g/ha [4, 15]: 0% | pest or weed control at 125 g/ha ([5]; preemergence): 0% | pest or weed control at 31 g/ha [5, 15]: 0% | pest or weed control at 125 g/ha [6]: 0% | pest or weed control at 31 g/ha [6, 16]: 0% | plant injury at 31 g/ha [7, 16]: 0% | pest or weed control at 125 g/ha [8]: 0% | pest or weed control at 31 g/ha [8, 16]: 0% | pest or weed control at 125 g/ha [9]: 0% | pest or weed control at 31 g/ha [9, 16]: 0% | pest or weed control at 125 g/ha [10]: 0% | pest or weed control at 31 g/ha [10, 16]: 0% | pest or weed control at 125 g/ha (Kochia (Kochia scoparia) [11]): 0% | pest or weed control at 31 g/ha (Kochia (Kochia scoparia) [11]; [16]): 0% | Corn plant response rating (crop injury, 0 = no effect, 100 = complete kill) at 125 g/ha (corn (Zea mays)): 0% | Corn plant response rating (crop injury, 0 = no effect, 100 = complete kill) at 31 g/ha (corn (Zea mays); [16]): 0% | pest or weed control at 125 g/ha [12]: 0% | pest or weed control at 31 g/ha [12, 16]: 0% | pest or weed control at 125 g/ha [13]: 0% | pest or weed control at 31 g/ha [13, 16]: 0% | pest or weed control at 125 g/ha [14]: 0% | pest or weed control at 31 g/ha [14, 16]: 0%

CN1C[C@H](c2cc(F)cc(F)c2)[C@@H](C(=O)Nc2ccccc2S(C)(=O)=O)C1=O [Compound 739]
pest or weed control at 125 g/ha ([1]; preemergence): 0% | pest or weed control at 500 g/ha [1, 17]: 30% | pest or weed control at 125 g/ha ([2]; preemergence): 0% | pest or weed control at 500 g/ha [2, 17]: 30% | pest or weed control at 125 g/ha (Kochia (Kochia scoparia) [3]; preemergence): 30% | pest or weed control at 500 g/ha (Kochia (Kochia scoparia) [3]; [17]): 80% | pest or weed control at 125 g/ha ([4]; preemergence): 50% | pest or weed control at 500 g/ha [4, 17]: 80% | pest or weed control at 125 g/ha ([5]; preemergence): 90% | pest or weed control at 500 g/ha [5, 17]: 100% | pest or weed control at 125 g/ha [6]: 0% | plant injury at 125 g/ha ([7]; 125 g ai/ha, postemergence, visual injury after approximately 10 d, 0 to 100 scale (0 no effect, 100 complete control)): 0% | pest or weed control at 125 g/ha [8]: 20% | pest or weed control at 125 g/ha [9]: 50% | pest or weed control at 125 g/ha [10]: 20% | pest or weed control at 125 g/ha (Kochia (Kochia scoparia) [11]): 30% | Corn plant response rating (crop injury, 0 = no effect, 100 = complete kill) at 125 g/ha (corn (Zea mays)): 20% | pest or weed control at 125 g/ha [12]: 30% | pest or weed control at 125 g/ha [13]: 90% | pest or weed control at 125 g/ha [14]: 90%
